Reference: the supplement of paper PMC12282887

Assays:
Test in all cases: fitness (OD AUC treated / untreated) (fraction); higher = more growth
[1] = tested on: E. coli BW25113 Drob + rob
Method: (§1)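 MIC curves of ciprofloxacin or amoxicillin, with or without 55.5 µg/ml caffeine, against E. coli BW25113 wild type, deletion mutants (ΔmicF, ΔompF, Δrob) and complemented strains. Assays ran in LB at 37°C in 96/384-well plates. Fitness is the OD600 AUC over 8 h divided by the no-drug control; 3-4 biological replicates.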

E. coli BW25113 Drob = tested on: E. coli BW25113 Drob
Method: as §1

E. coli BW25113 WT = tested on: E. coli BW25113 WT
Method: as §1

[2] = tested on: E. coli BW25113 DmicF + micF
Method: as §1

E. coli BW25113 DmicF = tested on: E. coli BW25113 DmicF
Method: as §1

[3] = tested on: E. coli BW25113 DompF + ompF
Method: as §1

CC1(C)S[C@@H]2[C@H](NC(=O)[C@H](N)c3ccc(O)cc3)C(=O)N2[C@H]1C(=O)O [Amoxicillin]
fitness
Details	E. coli BW25113 Drob	E. coli BW25113 WT	[1]
antibiotic concentration 0.72727 µg/ml, caffeine concentration 0 µg/ml	1.06	1.02	1.04
antibiotic concentration 0.72727 µg/ml, caffeine concentration 55.4857 µg/ml	0.954	0.986	0.988
antibiotic concentration 1.45455 µg/ml, caffeine concentration 0 µg/ml	1.067	1.03	1.098
antibiotic concentration 1.45455 µg/ml, caffeine concentration 55.4857 µg/ml	0.96	0.995	1.013
antibiotic concentration 2.18182 µg/ml, caffeine concentration 0 µg/ml	0.956	1.01	1.06
antibiotic concentration 2.18182 µg/ml, caffeine concentration 55.4857 µg/ml	0.8209	1.02	1
antibiotic concentration 2.90909 µg/ml, caffeine concentration 0 µg/ml	0.233	0.791	0.381
antibiotic concentration 2.90909 µg/ml, caffeine concentration 55.4857 µg/ml	0.207	1.07	0.976
antibiotic concentration 3.63636 µg/ml, caffeine concentration 0 µg/ml	0.107	0.246	0.156
antibiotic concentration 3.63636 µg/ml, caffeine concentration 55.4857 µg/ml	0.0967	0.971	0.653
antibiotic concentration 4.36364 µg/ml, caffeine concentration 0 µg/ml	0.0398	0.114	0.0865
antibiotic concentration 4.36364 µg/ml, caffeine concentration 55.4857 µg/ml	0.0126	0.637	0.219
antibiotic concentration 5.09091 µg/ml, caffeine concentration 0 µg/ml	4.88e-05	0.0723	0.0167
antibiotic concentration 5.09091 µg/ml, caffeine concentration 55.4857 µg/ml	0.000488	0.251	0.113
antibiotic concentration 5.81818 µg/ml, caffeine concentration 0 µg/ml	0	0.0283	0
antibiotic concentration 5.81818 µg/ml, caffeine concentration 55.4857 µg/ml	0	0.133	0.0601
antibiotic concentration 6.54545 µg/ml, caffeine concentration 0 µg/ml	0	0	0
antibiotic concentration 6.54545 µg/ml, caffeine concentration 55.4857 µg/ml	0	0.0838	0.00196
antibiotic concentration 7.27273 µg/ml, caffeine concentration 0 µg/ml	0	0	0
antibiotic concentration 7.27273 µg/ml, caffeine concentration 55.4857 µg/ml	0.000488	0.0273	0
antibiotic concentration 8 µg/ml, caffeine concentration 0 µg/ml	0	0	0
antibiotic concentration 8 µg/ml, caffeine concentration 55.4857 µg/ml	0	0.00395	0.000108

O=C(O)c1cn(C2CC2)c2cc(N3CCNCC3)c(F)cc2c1=O [Ciprofloxacin]
fitness
Details	E. coli BW25113 DmicF	E. coli BW25113 Drob	E. coli BW25113 WT	[2]	[3]
antibiotic concentration 0.00227 µg/ml, caffeine concentration 0 µg/ml	0.916	1.07	1.07	1.05	–
antibiotic concentration 0.00227 µg/ml, caffeine concentration 55.4857 µg/ml	0.927	0.883	0.995	–	–
antibiotic concentration 0.00455 µg/ml, caffeine concentration 0 µg/ml	0.793	0.845	0.987	1.01	–
antibiotic concentration 0.00455 µg/ml, caffeine concentration 55.4857 µg/ml	0.867	0.887	0.986	–	–
antibiotic concentration 0.00682 µg/ml, caffeine concentration 0 µg/ml	0.625	0.754	0.99	0.985	–
antibiotic concentration 0.00682 µg/ml, caffeine concentration 55.4857 µg/ml	0.684	0.733	1	0.99	–
antibiotic concentration 0.00909 µg/ml, caffeine concentration 0 µg/ml	0.435	0.641	0.891	0.876	–
antibiotic concentration 0.00909 µg/ml, caffeine concentration 55.4857 µg/ml	–	0.619	0.953	0.941	–
antibiotic concentration 0.01136 µg/ml, caffeine concentration 0 µg/ml	0.232	0.42	0.766	0.679	–
antibiotic concentration 0.01136 µg/ml, caffeine concentration 55.4857 µg/ml	–	0.383	0.938	0.798	–
antibiotic concentration 0.01364 µg/ml, caffeine concentration 0 µg/ml	0.153	0.266	0.58	0.381	0.748
antibiotic concentration 0.01364 µg/ml, caffeine concentration 55.4857 µg/ml	–	0.199	0.82	0.571	0.89
antibiotic concentration 0.01591 µg/ml, caffeine concentration 0 µg/ml	0.0556	0.143	0.448	0.154	–
antibiotic concentration 0.01591 µg/ml, caffeine concentration 55.4857 µg/ml	–	0.114	0.728	0.329	–
antibiotic concentration 0.01818 µg/ml, caffeine concentration 0 µg/ml	0.017	0.0644	0.304	0.0704	–
antibiotic concentration 0.01818 µg/ml, caffeine concentration 55.4857 µg/ml	–	0.0408	0.607	0.207	–
antibiotic concentration 0.02045 µg/ml, caffeine concentration 0 µg/ml	0.0088	0.0847	0.192	0.0466	0.541
antibiotic concentration 0.02045 µg/ml, caffeine concentration 55.4857 µg/ml	–	0.0665	0.482	0.119	0.771
antibiotic concentration 0.02273 µg/ml, caffeine concentration 0 µg/ml	0.00491	0.0851	0.101	0.045	–
antibiotic concentration 0.02273 µg/ml, caffeine concentration 55.4857 µg/ml	0.00595	0.0576	0.374	0.0506	–
antibiotic concentration 0.025 µg/ml, caffeine concentration 0 µg/ml	0	0.0782	0.0921	0.0379	–
antibiotic concentration 0.025 µg/ml, caffeine concentration 55.4857 µg/ml	0	0.0414	0.276	0.0446	–
antibiotic concentration 0.02727 µg/ml, caffeine concentration 0 µg/ml	–	–	–	–	0.238
antibiotic concentration 0.02727 µg/ml, caffeine concentration 55.4857 µg/ml	–	–	–	–	0.558
antibiotic concentration 0.03409 µg/ml, caffeine concentration 0 µg/ml	–	–	–	–	0.0975
antibiotic concentration 0.03409 µg/ml, caffeine concentration 55.4857 µg/ml	–	–	–	–	0.359
antibiotic concentration 0.04091 µg/ml, caffeine concentration 0 µg/ml	–	–	–	–	0.039
antibiotic concentration 0.04091 µg/ml, caffeine concentration 55.4857 µg/ml	–	–	–	–	0.194
antibiotic concentration 0.04773 µg/ml, caffeine concentration 0 µg/ml	–	–	–	–	0.032
antibiotic concentration 0.04773 µg/ml, caffeine concentration 55.4857 µg/ml	–	–	–	–	0.102
antibiotic concentration 0.05455 µg/ml, caffeine concentration 0 µg/ml	–	–	–	–	0.0267
antibiotic concentration 0.05455 µg/ml, caffeine concentration 55.4857 µg/ml	–	–	–	–	0.0511
antibiotic concentration 0.06136 µg/ml, caffeine concentration 0 µg/ml	–	–	–	–	0.0262
antibiotic concentration 0.06136 µg/ml, caffeine concentration 55.4857 µg/ml	–	–	–	–	0.0404
antibiotic concentration 0.06818 µg/ml, caffeine concentration 0 µg/ml	–	–	–	–	0.0324
antibiotic concentration 0.06818 µg/ml, caffeine concentration 55.4857 µg/ml	–	–	–	–	0.0403
antibiotic concentration 0.075 µg/ml, caffeine concentration 0 µg/ml	–	–	–	–	0.0312
antibiotic concentration 0.075 µg/ml, caffeine concentration 55.4857 µg/ml	–	–	–	–	0.0317
